Assay results from ChEMBL document CHEMBL1201862, “PubChem BioAssay data set” (2004).
Values joined by “and” are separate entries in the source; they are usually repeats but may differ in a detail not shown here. Identical values can stand only once. Active and inactive are the calls of the source.

Experiments:
[1] = molecular target: Cytochrome P450 3A4 (Homo sapiens, UniProt P08684);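 further: CYP3A4 tested as one member of a cytochrome P450 panel screen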
[2] = system: HEK293; test: EBV LMP1 TES2 canonical NF-kB signalling blockers – cell-based, HEK293, luciferase, cherry-pick, dose response (AID 588343); format: functional; conditions: Homo sapiens
[3] = molecular target: Paired box protein Pax-8 (Homo sapiens, UniProt Q06710); test: PAX8 transcriptional activity inhibition in RMG-I – RMG-I cells, luciferase, cherry-pick, dose response (AID 687027); format: functional, cell-based;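 further: luciferase reporter driven by Pax8 target thyroperoxidase promoter measured by SteadyGlo luminescence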
[4] = molecular target: RAC-gamma serine/threonine-protein kinase (Homo sapiens, UniProt Q9Y243); format: functional
[5] = molecular target: 5'-AMP-activated protein kinase catalytic subunit alpha-1 (Homo sapiens, UniProt Q13131); format: functional
[6] = molecular target: Protein kinase C delta type (Homo sapiens, UniProt Q05655); format: functional
[7] = molecular target: Calcium/calmodulin-dependent protein kinase type II subunit gamma (Homo sapiens, UniProt Q13555); format: functional
[8] = molecular target: Eukaryotic elongation factor 2 kinase (Homo sapiens, UniProt O00418); format: functional
[9] = molecular target: Mitogen-activated protein kinase 8 (Homo sapiens, UniProt P45983); format: functional;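 further: value comes from one member of a kinome-wide kinase profiling panel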
[10] = molecular target: Serine/threonine-protein kinase pim-1 (Homo sapiens, UniProt P11309); format: functional
[11] = molecular target: MAP kinase-activated protein kinase 2 (Homo sapiens, UniProt P49137); format: functional;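 further: measured as one member of a kinome-wide kinase panel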
[12] = molecular target: Cell division cycle 7-related protein kinase (Homo sapiens, UniProt O00311); format: functional;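 further: value obtained from a kinome-wide kinase panel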
[13] = molecular target: Mast/stem cell growth factor receptor Kit (Homo sapiens, UniProt P10721); format: functional;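 further: KIT entry within a kinase panel assay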
[14] = molecular target: Casein kinase II subunit alpha (Homo sapiens, UniProt P68400); format: functional
[15] = molecular target: Fibroblast growth factor receptor 1 (Homo sapiens, UniProt P11362); format: functional
[16] = molecular target: Ribosomal protein S6 kinase alpha-5 (Homo sapiens, UniProt O75582); format: functional
[17] = molecular target: LIM domain kinase 1 (Homo sapiens, UniProt P53667); test: Navigating the Kinome. Panel member name: LIMK1; format: functional
[18] = molecular target: Proto-oncogene tyrosine-protein kinase ROS (Homo sapiens, UniProt P08922); format: functional;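 further: ROS1 tested as one member of a kinome-wide kinase panel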
[19] = molecular target: Protein-tyrosine kinase 2-beta (Homo sapiens, UniProt Q14289); format: functional
[20] = molecular target: Serine/threonine-protein kinase pim-3 (Homo sapiens, UniProt Q86V86); format: functional;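 further: value obtained as one member of a broad kinase panel profiling effort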
[21] = molecular target: Non-receptor tyrosine-protein kinase TYK2 (Homo sapiens, UniProt P29597); format: functional
[22] = molecular target: Serine/threonine-protein kinase Chk1 (Homo sapiens, UniProt O14757); format: functional;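 further: measured as one member of a kinome-wide kinase profiling panel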
[23] = molecular target: Cyclin-dependent kinase 5 (Homo sapiens, UniProt Q00535); format: functional;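 further: CDK5 measured as one member of a kinase profiling panel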
[24] = molecular target: Misshapen-like kinase 1 (Homo sapiens, UniProt Q8N4C8); format: functional;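 further: kinome panel screen with MINK as the panel member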
[25] = molecular target: Protein-tyrosine kinase 6 (Homo sapiens, UniProt Q13882); format: functional
[26] = molecular target: Aurora kinase B (Homo sapiens, UniProt Q96GD4); format: functional
[27] = molecular target: Interleukin-1 receptor-associated kinase 4 (Homo sapiens, UniProt Q9NWZ3); format: functional
[28] = molecular target: Tyrosine-protein kinase Fer (Homo sapiens, UniProt P16591); format: functional;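 further: FER tested as one member of a kinome panel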
[29] = molecular target: Serine/threonine-protein kinase PLK1 (Homo sapiens, UniProt P53350); format: functional;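 further: PLK1 measured as one member of a kinome-wide profiling panel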
[30] = molecular target: Dual specificity tyrosine-phosphorylation-regulated kinase 1A (Homo sapiens, UniProt Q13627); format: functional;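 further: measured against DYRK1A as one member of a broad kinome profiling panel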
[31] = molecular target: Procathepsin L (Homo sapiens, UniProt P07711)
[32] = molecular target: Glucose-6-phosphate 1-dehydrogenase (Homo sapiens, UniProt P11413); test: inhibition of Homo sapiens G6PD, dose series – biochemical, fluorescence, selectivity assay for P. falciparum G6PD inhibitor project, dose response (AID 504792); format: functional
[33] = THP-1 cell cytotoxicity, dose response, cytotoxicity control for non-replicating M. tuberculosis project (AID 489025); format: functional
[34] = molecular target: Phosphoethanolamine/phosphocholine phosphatase (Homo sapiens, UniProt Q8TCT1); test: SAR assay for compounds that inhibit PHOSPHO1. [Related pubchem assays (depositor defined):AID1545, AID1565, AID1574]
[35] = cells; format: functional
[36] = molecular target: SWI/SNF-related matrix-associated actin-dependent regulator of chromatin subfamily A member 2 (Homo sapiens, UniProt P51531); test: Luminescence-based cell-based high throughput dose response assay to identify activators of the function of SWI/SNF related, matrix associated, actin dependent regulator of chromatin, subfamily a, member 2 (SMARCA2, BRM).; format: functional
[37] = Counterscreen for activators of the function of SWI/SNF related, matrix associated, actin dependent regulator of chromatin, subfamily a, member 2 (SMARCA2, BRM): Luminescence-based cell-based high throughput dose response assay to identify non-selective compounds using the VP16 reporter assay.; format: functional
[38] = fluconazole-exposed Candida albicans growth modulators – fluorescence, retest, confirmation (AID 2467); format: functional, cell-based
[39] = molecular target: Serine/threonine-protein phosphatase (Candida dubliniensis (strain CD36 / CBS 7987 / NCPF 3949 / NRRLY-17841) (Yeast), UniProt B9W6M3); test: blockers of CaCl2-induced CDRE-lacZ signaling – S. cerevisiae, luminescence, secondary, dose response (AID 2388); format: functional, cell-based;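 further: yeast reporter cells carrying a calcineurin-responsive lacZ construct stimulated with calcium chloride; luminescent beta-galactosidase reporter signal in whole cells rather than isolated phosphatase activity; potency for inhibition where a drop in reporter signal means calcineurin blockade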
[40] = molecular target: Dual specificity tyrosine-phosphorylation-regulated kinase 1A (Rattus norvegicus, UniProt Q63470); format: biochemical, Homo sapiens
[41] = molecular target: DNA (cytosine-5)-methyltransferase 1 (Homo sapiens, UniProt P26358); test: inhibition of DNA methylation by DNMT1 – biochemical, fluorescent molecular beacon, confirmation (AID 602386); format: functional
[42] = molecular target: RNA-editing ligase 1, mitochondrial (Trypanosoma brucei brucei, UniProt P86926); test: inhibition of trypanosome RNA editing ligase – biochemical, fluorescence, Trypanosoma brucei, dose response (AID 1117295); format: functional
Chain of RNA-editing ligase 1, mitochondrial (P86926 whole entry): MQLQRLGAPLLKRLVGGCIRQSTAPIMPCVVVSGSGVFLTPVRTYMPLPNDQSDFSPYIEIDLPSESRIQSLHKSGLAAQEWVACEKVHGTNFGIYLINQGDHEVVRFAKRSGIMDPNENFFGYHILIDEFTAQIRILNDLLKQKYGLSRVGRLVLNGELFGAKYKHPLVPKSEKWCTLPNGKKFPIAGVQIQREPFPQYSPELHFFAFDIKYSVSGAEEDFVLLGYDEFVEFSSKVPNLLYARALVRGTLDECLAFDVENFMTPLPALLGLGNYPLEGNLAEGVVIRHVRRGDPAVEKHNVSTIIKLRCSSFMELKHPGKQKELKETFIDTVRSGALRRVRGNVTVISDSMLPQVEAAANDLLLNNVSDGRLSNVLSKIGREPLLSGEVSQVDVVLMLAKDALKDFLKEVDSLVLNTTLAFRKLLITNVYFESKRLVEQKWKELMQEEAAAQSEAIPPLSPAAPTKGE

Chain of Phosphoethanolamine/phosphocholine phosphatase (Q8TCT1 whole entry): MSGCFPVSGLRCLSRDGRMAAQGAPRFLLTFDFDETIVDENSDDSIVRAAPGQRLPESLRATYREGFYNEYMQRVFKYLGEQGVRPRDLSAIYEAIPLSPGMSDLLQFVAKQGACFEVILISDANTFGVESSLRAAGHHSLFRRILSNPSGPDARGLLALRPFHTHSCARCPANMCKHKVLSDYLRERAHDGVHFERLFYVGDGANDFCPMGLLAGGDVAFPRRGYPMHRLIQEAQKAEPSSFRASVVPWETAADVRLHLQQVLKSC
Chain of Aurora kinase B (Q96GD4 whole entry): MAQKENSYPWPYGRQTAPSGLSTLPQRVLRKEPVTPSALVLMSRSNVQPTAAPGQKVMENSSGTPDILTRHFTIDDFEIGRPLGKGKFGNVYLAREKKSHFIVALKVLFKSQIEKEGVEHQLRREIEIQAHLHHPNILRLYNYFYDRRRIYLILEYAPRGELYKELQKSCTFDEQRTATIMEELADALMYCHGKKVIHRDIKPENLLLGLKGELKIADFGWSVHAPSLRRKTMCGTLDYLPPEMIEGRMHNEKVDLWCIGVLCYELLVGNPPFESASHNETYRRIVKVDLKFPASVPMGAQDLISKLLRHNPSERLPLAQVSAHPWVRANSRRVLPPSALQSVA
Chain of Protein-tyrosine kinase 2-beta (Q14289 whole entry): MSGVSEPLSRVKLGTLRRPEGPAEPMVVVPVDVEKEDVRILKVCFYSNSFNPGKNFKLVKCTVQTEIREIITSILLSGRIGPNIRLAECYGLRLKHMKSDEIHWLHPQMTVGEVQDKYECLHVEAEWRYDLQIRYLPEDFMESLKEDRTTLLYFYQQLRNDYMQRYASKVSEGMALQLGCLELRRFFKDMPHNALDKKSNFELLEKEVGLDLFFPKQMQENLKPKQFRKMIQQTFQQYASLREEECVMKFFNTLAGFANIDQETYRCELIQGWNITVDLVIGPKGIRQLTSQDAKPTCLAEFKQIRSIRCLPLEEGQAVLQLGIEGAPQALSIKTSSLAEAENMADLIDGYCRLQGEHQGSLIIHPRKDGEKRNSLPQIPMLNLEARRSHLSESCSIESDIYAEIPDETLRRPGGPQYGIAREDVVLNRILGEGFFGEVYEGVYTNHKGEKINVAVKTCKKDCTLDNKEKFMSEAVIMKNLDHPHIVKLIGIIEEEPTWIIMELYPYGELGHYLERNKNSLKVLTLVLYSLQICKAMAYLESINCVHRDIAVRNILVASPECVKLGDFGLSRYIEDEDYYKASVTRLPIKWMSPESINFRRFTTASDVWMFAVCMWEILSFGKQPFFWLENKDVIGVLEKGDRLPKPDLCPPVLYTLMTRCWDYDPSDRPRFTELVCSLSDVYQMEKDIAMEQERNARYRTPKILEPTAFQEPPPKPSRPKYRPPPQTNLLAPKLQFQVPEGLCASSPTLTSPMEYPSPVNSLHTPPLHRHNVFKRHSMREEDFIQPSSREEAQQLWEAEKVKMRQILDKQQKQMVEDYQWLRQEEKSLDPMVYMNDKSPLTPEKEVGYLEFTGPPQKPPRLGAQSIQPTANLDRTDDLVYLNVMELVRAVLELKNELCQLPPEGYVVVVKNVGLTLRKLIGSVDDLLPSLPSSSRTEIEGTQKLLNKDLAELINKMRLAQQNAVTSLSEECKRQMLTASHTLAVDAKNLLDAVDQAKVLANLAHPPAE
Chain of Cell division cycle 7-related protein kinase (O00311 whole entry): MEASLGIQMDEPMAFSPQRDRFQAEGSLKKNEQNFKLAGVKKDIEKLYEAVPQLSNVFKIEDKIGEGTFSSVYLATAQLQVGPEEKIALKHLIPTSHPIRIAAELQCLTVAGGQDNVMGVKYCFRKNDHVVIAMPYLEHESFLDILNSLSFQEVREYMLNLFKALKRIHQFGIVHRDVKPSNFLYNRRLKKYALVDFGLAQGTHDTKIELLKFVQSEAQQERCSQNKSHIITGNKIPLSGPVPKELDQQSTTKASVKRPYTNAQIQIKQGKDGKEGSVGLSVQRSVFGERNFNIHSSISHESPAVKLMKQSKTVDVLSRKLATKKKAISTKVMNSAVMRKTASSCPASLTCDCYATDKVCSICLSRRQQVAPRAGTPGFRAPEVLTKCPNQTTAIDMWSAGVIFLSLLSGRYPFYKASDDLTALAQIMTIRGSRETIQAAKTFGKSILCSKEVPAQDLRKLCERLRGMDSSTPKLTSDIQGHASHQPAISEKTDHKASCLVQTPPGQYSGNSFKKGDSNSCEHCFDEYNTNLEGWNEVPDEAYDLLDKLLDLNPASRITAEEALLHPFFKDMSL
Chain of Procathepsin L (P07711 whole entry): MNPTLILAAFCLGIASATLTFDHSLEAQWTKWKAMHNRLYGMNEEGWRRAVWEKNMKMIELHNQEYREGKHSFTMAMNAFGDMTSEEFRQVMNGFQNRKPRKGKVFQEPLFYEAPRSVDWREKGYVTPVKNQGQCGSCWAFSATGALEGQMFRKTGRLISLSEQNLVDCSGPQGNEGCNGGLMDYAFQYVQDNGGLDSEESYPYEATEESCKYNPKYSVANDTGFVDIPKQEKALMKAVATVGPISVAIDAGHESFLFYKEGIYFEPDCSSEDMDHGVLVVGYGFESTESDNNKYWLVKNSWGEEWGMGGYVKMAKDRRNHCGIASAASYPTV
Chain of Fibroblast growth factor receptor 1 (P11362 whole entry): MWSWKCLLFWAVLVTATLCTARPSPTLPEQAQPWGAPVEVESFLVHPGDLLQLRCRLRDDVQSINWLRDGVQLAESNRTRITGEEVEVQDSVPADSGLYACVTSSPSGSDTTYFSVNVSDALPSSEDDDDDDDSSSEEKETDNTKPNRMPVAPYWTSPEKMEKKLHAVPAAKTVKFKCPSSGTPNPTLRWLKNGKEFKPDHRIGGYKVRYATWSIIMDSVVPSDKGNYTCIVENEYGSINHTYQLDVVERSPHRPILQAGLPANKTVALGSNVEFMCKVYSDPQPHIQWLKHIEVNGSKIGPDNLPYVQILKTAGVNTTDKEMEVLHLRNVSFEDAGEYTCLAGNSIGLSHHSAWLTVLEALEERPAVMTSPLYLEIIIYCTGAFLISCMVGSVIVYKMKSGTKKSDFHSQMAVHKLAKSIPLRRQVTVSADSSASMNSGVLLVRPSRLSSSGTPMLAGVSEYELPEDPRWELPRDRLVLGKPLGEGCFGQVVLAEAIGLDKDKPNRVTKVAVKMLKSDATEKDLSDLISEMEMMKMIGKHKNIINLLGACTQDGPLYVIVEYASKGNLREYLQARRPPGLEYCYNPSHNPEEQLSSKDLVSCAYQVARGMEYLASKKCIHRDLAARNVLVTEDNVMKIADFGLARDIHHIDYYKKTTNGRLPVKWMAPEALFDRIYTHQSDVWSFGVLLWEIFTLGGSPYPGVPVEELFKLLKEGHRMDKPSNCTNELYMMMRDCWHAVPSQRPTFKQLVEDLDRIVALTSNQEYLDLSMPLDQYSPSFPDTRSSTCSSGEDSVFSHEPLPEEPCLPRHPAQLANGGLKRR
Chain of Serine/threonine-protein phosphatase (B9W6M3 whole entry): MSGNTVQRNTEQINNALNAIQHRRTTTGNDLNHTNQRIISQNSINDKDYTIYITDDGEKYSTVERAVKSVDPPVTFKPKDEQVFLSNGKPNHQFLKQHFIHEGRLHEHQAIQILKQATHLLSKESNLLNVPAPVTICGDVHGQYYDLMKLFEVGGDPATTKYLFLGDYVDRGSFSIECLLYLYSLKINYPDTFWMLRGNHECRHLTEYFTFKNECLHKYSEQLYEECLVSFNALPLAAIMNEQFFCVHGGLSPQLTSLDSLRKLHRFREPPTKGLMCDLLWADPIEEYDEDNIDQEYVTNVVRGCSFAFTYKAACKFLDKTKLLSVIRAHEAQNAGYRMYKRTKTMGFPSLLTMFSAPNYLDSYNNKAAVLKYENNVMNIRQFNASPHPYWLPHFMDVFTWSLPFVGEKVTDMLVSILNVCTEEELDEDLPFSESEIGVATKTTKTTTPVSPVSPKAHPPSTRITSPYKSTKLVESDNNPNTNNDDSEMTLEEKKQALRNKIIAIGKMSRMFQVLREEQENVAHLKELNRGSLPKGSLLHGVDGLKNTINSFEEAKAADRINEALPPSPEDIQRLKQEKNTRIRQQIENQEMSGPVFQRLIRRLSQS
Chain of Serine/threonine-protein kinase Chk1 (O14757 whole entry): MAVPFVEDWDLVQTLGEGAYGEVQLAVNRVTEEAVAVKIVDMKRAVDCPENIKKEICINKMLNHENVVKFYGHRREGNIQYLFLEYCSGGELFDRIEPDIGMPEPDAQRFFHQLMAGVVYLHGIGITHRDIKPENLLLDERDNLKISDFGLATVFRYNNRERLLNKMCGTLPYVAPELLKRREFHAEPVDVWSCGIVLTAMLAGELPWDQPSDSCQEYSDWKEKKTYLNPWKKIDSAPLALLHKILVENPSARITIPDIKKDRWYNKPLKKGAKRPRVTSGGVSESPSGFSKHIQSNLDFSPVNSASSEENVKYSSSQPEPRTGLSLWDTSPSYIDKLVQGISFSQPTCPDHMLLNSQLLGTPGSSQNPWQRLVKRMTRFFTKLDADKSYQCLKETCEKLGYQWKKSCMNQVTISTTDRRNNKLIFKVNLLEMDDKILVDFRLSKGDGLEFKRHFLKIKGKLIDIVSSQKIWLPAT

**Q.** For `CC(=O)N(/N=C1\Sc2ccccc2C1=O)c1ccccc1C`, which AC50 [1] is on record?
**A.** 31.6 µM (inconclusive)

**Q.** What does the source list for `CCC(=O)NC(c1ccc(C)cc1)c1ccc2cccnc2c1O` (configuration not stated)?
**A.** AC50 [2]: 4.51 µM (active); AC50 [3]: 1.81 µM (active)

**Q.** What does the source list for `Cc1cccc(NC(=O)Nc2ccc3c(c2)CCc2sc4ncnc(N)c4c2-3)c1`?
**A.** Ki [4]: > 10 µM (inactive); Ki [5]: 398 nM (active); Ki [6]: 7.94 µM (active); Ki [7]: > 6.31 µM (inactive); Ki [8]: > 3.98 µM (inactive); Ki [9]: > 3.16 µM (inactive); Ki [10]: 3.98 µM (active); Ki [11]: > 7.94 µM (inactive); Ki [12]: > 1.26 µM (inactive); Ki [13]: > 1.26 µM (inactive); Ki [14]: > 6.31 µM (inactive); Ki [15]: 2.51 µM (active); Ki [16]: > 2 µM (inactive); Ki [17]: 631 nM (active); Ki [18]: 2 µM (active); Ki [19]: > 1.58 µM (inactive); Ki [20]: 5.01 µM (active); Ki [21]: > 2 µM (inactive); Ki [22]: > 7.94 µM (inactive); Ki [23]: > 10 µM (inactive); Ki [24]: > 7.94 µM (inactive); Ki [25]: > 2.51 µM (inactive); Ki [26]: 31.6 nM (active); Ki [27]: > 10 µM (inactive); Ki [28]: > 1.58 µM (inactive); Ki [29]: > 7.94 µM (inactive); Ki [30]: 316 nM (active)

**Q.** Which IC50 [31] does the source give for `Cc1ccc(-n2sc3ccccc3c2=O)cc1` here?
**A.** > 59.6 µM (not active)

**Q.** What about the IC50 [32] of the same compound?
**A.** 30.1 µM (inactive)

**Q.** What about the CC50 [33] of the same compound?
**A.** 18.6 µM (active)

**Q.** What about the IC50 [34] of the same compound?
**A.** 2.28 µM (inactive) and 1.46 µM (inactive)

**Q.** What about the IC50 [35] of the same compound?
**A.** 22.4 µM (active)

**Q.** What about the EC50 [36] of the same compound?
**A.** > 91.2 µM (inactive)

**Q.** What about the EC50 [37] of the same compound?
**A.** 51.5 µM (inactive)

**Q.** For `CCCC(=O)NC(c1ccc(Cl)cc1)c1ccc2cccnc2c1O` (configuration not stated), which EC50 [38] is on record?
**A.** 365 nM (active)

**Q.** What about the EC50 [39] of the same compound?
**A.** 45.4 µM (active)

**Q.** For `N/C(=N\N=C/c1ccc(-c2ccc(O)c(C(=O)O)c2)o1)N[N+](=O)[O-]`, which AC50 [40] is on record?
**A.** 1.13 µM (active)

**Q.** And the IC50 [41]?
**A.** 3.94 µM (active)

**Q.** And the IC50 [42]?
**A.** 21.2 µM (inactive)
